Assay results reported in patent publication US12077503B2, “Substituted cyclic amides and their use as herbicides” (FMC CORPORATION, priority 2015, dated 2024).

Columns and labels:
Type in all cases: in vivo
[1] = tested on: giant foxtail (Setaria faberii); test: Test A postemergence
Source text: (§1) Seeds of plant species selected from barnyardgrass (Echinochloa crus-galli), Kochia (Kochia scoparia), ragweed (common ragweed, Ambrosia elatior), ryegrass, Italian (Italian ryegrass, Lolium multiflorum), crabgrass, large (Digitaria sanguinalis), giant foxtail (Setaria faberii), green foxtail (Setaria viridis), morningglory (Ipomoea spp.), pigweed (Amaranthus retroflexus), velvetleaf (Abutilon theophrasti), wheat (Triticum aestivum), and corn (Zea mays) were planted into a blend of loam soil and sand and treated preemergence with a directed soil spray using test chemicals formulated in anon-phytotoxic solvent mixture which included a surfactant.
(§2) At the same time, plants selected from these crop and weed species and also blackgrass (Alopecurus myosuroides), and Galium (catchweed bedstraw, Galium aparine) were planted in pots containing the same blend of loam soil and sand and treated with postemergence applications of test chemicals formulated in the same manner. Plants ranged in height from 2 to 10 cm and were in the one- to two-leaf stage for the postemergence treatment. Treated plants and untreated controls were maintained in a greenhouse for approximately 10 d, after which time all treated plants were compared to untreated controls and visually evaluated for injury. Plant response ratings, summarized in Table A, are based on a 0 to 100 scale where 0 is no effect and 100 is complete control. A dash (-) response means no test result.

Kochia (Kochia scoparia) [2] = test: Test A postemergence
Source text: as §1, §2

[3] = tested on: wheat (Triticum aestivum); test: Test A postemergence
Source text: as §1, §2

[4] = tested on: barnyardgrass (Echinochloa crus-galli); test: Test A postemergence; details: for Barnyardgrass plant response rating: 125 g ai/ha, postemergence, visual injury rating on 0 to 100 scale (0 no effect, 100 complete control), approx. 10 d; for Plant response rating, Barnyardgrass: Postemergence, 500 g ai/ha, 0 to 100 scale where 0 is no effect and 100 is complete control
Source text: as §1, §2

[5] = tested on: pigweed (Amaranthus retroflexus); test: Test A postemergence
Source text: as §1, §2

[6] = tested on: blackgrass (Alopecurus myosuroides); test: Test A postemergence; details: for Blackgrass plant response rating: 125 g ai/ha, postemergence, visual injury rating on 0 to 100 scale (0 no effect, 100 complete control), approx. 10 d; for Plant response rating, Blackgrass: Postemergence, 500 g ai/ha, 0 to 100 scale where 0 is no effect and 100 is complete control
Source text: as §1, §2

[7] = tested on: ragweed (common ragweed, Ambrosia elatior); test: Test A postemergence
Source text: as §1, §2

[8] = tested on: Galium (catchweed bedstraw, Galium aparine); test: Test A postemergence
Source text: as §1, §2

[9] = tested on: ryegrass, Italian (Italian ryegrass, Lolium multiflorum); test: Test A postemergence
Source text: as §1, §2

corn (Zea mays) = test: Test A postemergence
Source text: as §1, §2

[10] = tested on: sedge, umbrella (small-flower umbrella sedge, Cyperus difformis); test: Test B flooded paddy test; details: Flood, 0 to 100 scale where 0 is no effect and 100 is complete control, 13 to 15 d
Summary of the method: (§3)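 Compound goes directly into floodwater once pots are flooded 3 cm above soil, targeting plants at two leaves; the water depth is then held for the test duration. Plants sit 13–15 d in a greenhouse and are rated visually, 100 denoting complete control.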

[11] = tested on: ducksalad (Heteranthera limosa); test: Test B flooded paddy test; details: Flood, 0 to 100 scale where 0 is no effect and 100 is complete control, 13 to 15 d
Summary of the method: as §3

[12] = tested on: barnyardgrass (Echinochloa crus-galli); test: Test B flooded paddy test; details: Flood, 0 to 100 scale where 0 is no effect and 100 is complete control, 13 to 15 d
Summary of the method: as §3

rice (Oryra sativa) = test: Test B flooded paddy test; details: Flood, 0 to 100 scale where 0 is no effect and 100 is complete control, 13 to 15 d
Summary of the method: as §3

[13] = tested on: giant foxtail (Setaria faberii); test: Test A preemergence; details: Preemergence; for Plant response rating, Foxtail, Giant: 125 g ai/ha, visual injury after approximately 10 d, 0 to 100 scale where 0 is no effect and 100 is complete control; for Foxtail, Giant plant response rating (0 to 100 scale, 0 is no effect, 100 is complete control): 500 g ai/ha, visual injury approx. 10 d
Source text: as §1, §2

Kochia (Kochia scoparia) [14] = test: Test A preemergence; details: Preemergence; for Plant response rating, Kochia: 125 g ai/ha, visual injury after approximately 10 d, 0 to 100 scale where 0 is no effect and 100 is complete control; for Kochia plant response rating (0 to 100 scale, 0 is no effect, 100 is complete control): 500 g ai/ha, visual injury approx. 10 d
Source text: as §1, §2

[15] = tested on: barnyardgrass (Echinochloa crus-galli); test: Test A preemergence; details: Preemergence; for Plant response rating, Barnyardgrass: 125 g ai/ha, visual injury after approximately 10 d, 0 to 100 scale where 0 is no effect and 100 is complete control; for Barnyardgrass plant response rating (0 to 100 scale, 0 is no effect, 100 is complete control): 500 g ai/ha, visual injury approx. 10 d
Source text: as §1, §2

[16] = tested on: pigweed (Amaranthus retroflexus); test: Test A preemergence; details: Preemergence; for Plant response rating, Pigweed: 125 g ai/ha, visual injury after approximately 10 d, 0 to 100 scale where 0 is no effect and 100 is complete control; for Pigweed plant response rating (0 to 100 scale, 0 is no effect, 100 is complete control): 500 g ai/ha, visual injury approx. 10 d
Source text: as §1, §2

[17] = tested on: ragweed (common ragweed, Ambrosia elatior); test: Test A preemergence; details: Preemergence; for Plant response rating, Ragweed: 125 g ai/ha, visual injury after approximately 10 d, 0 to 100 scale where 0 is no effect and 100 is complete control
Source text: as §1, §2

[18] = tested on: ryegrass, Italian (Italian ryegrass, Lolium multiflorum); test: Test A preemergence; details: Preemergence; for Plant response rating, Ryegrass, Italian: 125 g ai/ha, visual injury after approximately 10 d, 0 to 100 scale where 0 is no effect and 100 is complete control; for Ryegrass, Italian plant response rating (0 to 100 scale, 0 is no effect, 100 is complete control): 500 g ai/ha, visual injury approx. 10 d
Source text: as §1, §2

[19] = 125 g ai/ha, postemergence, visual rating after approx. 10 d, 0 to 100 scale (0 no effect, 100 complete control)
[20] = Postemergence, 500 g ai/ha, 0 to 100 scale where 0 is no effect and 100 is complete control

Compound	Plant response rating, Foxtail, Giant [1, 19]	Plant response rating, Foxtail, Giant [1, 20]	Plant response rating, Kochia (Kochia (Kochia scoparia) [2]; [19])	Plant response rating, Kochia (Kochia (Kochia scoparia) [2]; [20])	Plant response rating, Wheat [3, 19]	Plant response rating, Wheat [3, 20]	Barnyardgrass plant response rating [4]	Plant response rating, Barnyardgrass [4]	Plant response rating, Pigweed [5, 19]	Plant response rating, Pigweed [5, 20]	Blackgrass plant response rating [6]	Plant response rating, Blackgrass [6]	Plant response rating, Ragweed [7, 19]	Plant response rating, Ragweed [7, 20]	Plant response rating, Galium [8, 19]	Plant response rating, Galium [8, 20]	Plant response rating, Ryegrass, Italian [9, 19]	Plant response rating, Ryegrass, Italian [9, 20]	Plant response rating, Corn (corn (Zea mays); [19])	Plant response rating, Corn (corn (Zea mays); [20])	also measured
O=C1NCC(c2ccc(Oc3ccccc3)cc2)C1C(=O)Nc1ccc(F)cc1F (racemic) [Compound 535]	0	0	0	0	0	0	0	0	0	0	0	0	0	0	0	0	0	0	0	0	Plant response rating, Sedge, Umbrella ([10]; 500 g ai/ha): 50; Plant response rating, Ducksalad ([11]; 500 g ai/ha): 20; Plant response rating, Barnyardgrass ([12]; 500 g ai/ha): 0; Plant response rating, Rice (rice (Oryra sativa); 500 g ai/ha): 0; Plant response rating, Foxtail, Giant [13]: 0; Foxtail, Giant plant response rating (0 to 100 scale, 0 is no effect, 100 is complete control) [13]: 0; Plant response rating, Kochia (Kochia (Kochia scoparia) [14]): 0; Kochia plant response rating (0 to 100 scale, 0 is no effect, 100 is complete control) (Kochia (Kochia scoparia) [14]): 0; Plant response rating, Barnyardgrass [15]: 0; Barnyardgrass plant response rating (0 to 100 scale, 0 is no effect, 100 is complete control) [15]: 0; Plant response rating, Pigweed [16]: 0; Pigweed plant response rating (0 to 100 scale, 0 is no effect, 100 is complete control) [16]: 0; Plant response rating, Ragweed [17]: 0; Ragweed plant response rating (0 to 100 scale, 0 is no effect, 100 is complete control) ([17]; 500 g ai/ha, visual injury approx. 10 d): 0; Plant response rating, Ryegrass, Italian [18]: 0; Ryegrass, Italian plant response rating (0 to 100 scale, 0 is no effect, 100 is complete control) [18]: 0
COc1c(F)ccc(NC(=O)C2C(=O)NCC2c2cccc(OC(F)(F)C(F)F)c2)c1F (racemic) [Compound 540]	70	90	0	0	0	60	60	70	0	0	50	60	0	20	60	70	0	30	30	60	Plant response rating, Sedge, Umbrella ([10]; 250 g ai/ha): 0; Plant response rating, Ducksalad ([11]; 250 g ai/ha): 75; Plant response rating, Barnyardgrass ([12]; 250 g ai/ha): 55; Plant response rating, Rice (rice (Oryra sativa); 250 g ai/ha): 0; Plant response rating, Foxtail, Giant [13]: 90; Foxtail, Giant plant response rating (0 to 100 scale, 0 is no effect, 100 is complete control) [13]: 90; Plant response rating, Kochia (Kochia (Kochia scoparia) [14]): 0; Kochia plant response rating (0 to 100 scale, 0 is no effect, 100 is complete control) (Kochia (Kochia scoparia) [14]): 20; Plant response rating, Barnyardgrass [15]: 80; Barnyardgrass plant response rating (0 to 100 scale, 0 is no effect, 100 is complete control) [15]: 90; Plant response rating, Pigweed [16]: 0; Pigweed plant response rating (0 to 100 scale, 0 is no effect, 100 is complete control) [16]: 60; Plant response rating, Ragweed [17]: 0; Plant response rating, Ryegrass, Italian [18]: 0; Ryegrass, Italian plant response rating (0 to 100 scale, 0 is no effect, 100 is complete control) [18]: 40
